Test results published in PubChem BioAssay (NCI).
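In this assay, cells in 96-well plates receive the compound at five concentrations for 48 hours. Endpoints are linearly interpolated between the surrounding concentrations. GI50 = concentration required for 50% inhibition of growth. TGI: concentration producing complete growth inhibition.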

Legend:
Experiment in all cases: growth of human tumour cells (NCI), 48 h
SNB-78 CNS = test system: SNB-78 CNS
UO-31 renal = test system: UO-31 renal
COLO 205 colon = test system: COLO 205 colon
LXFL 529 NSCLC = test system: LXFL 529 NSCLC
K-562 leukemia = test system: K-562 leukemia
SN12C renal = test system: SN12C renal
SK-MEL-28 melanoma = test system: SK-MEL-28 melanoma
HS 578T breast = test system: HS 578T breast
T-47D breast = test system: T-47D breast
NCI/ADR-RES ovarian = test system: NCI/ADR-RES ovarian

Row | Compound | TGI (SNB-78 CNS) | TGI (UO-31 renal) | TGI (COLO 205 colon) | TGI (LXFL 529 NSCLC) | TGI (K-562 leukemia) | TGI (SN12C renal) | TGI (SK-MEL-28 melanoma) | TGI (HS 578T breast) | TGI (T-47D breast) | GI50 (SNB-78 CNS) | GI50 (UO-31 renal) | GI50 (COLO 205 colon) | GI50 (LXFL 529 NSCLC) | GI50 (K-562 leukemia) | GI50 (SN12C renal) | GI50 (SK-MEL-28 melanoma) | TGI (NCI/ADR-RES ovarian)
1 | C#Cc1cccc(N2C(=O)CCC2=O)c1 | 54.6 µM | 31.9 µM | 24.8 µM | 15.8 µM | 20.9 µM | 33.6 µM | 32.3 µM | 85.8 µM | 56.8 µM |  |  |  |  |  |  |  | 
2 | C=C1C(=O)O[C@@H]2C[C@@H](C)[C@@H]3C=CC(=O)[C@@]3(C)[C@@H](OC(=O)CC(=O)O[C@H]3[C@@H]4C(=C)C(=O)O[C@@H]4C[C@@H](C)[C@@H]4C=CC(=O)[C@]43C)[C@H]12 | 0.101 µM | 0.271 µM | 0.0403 µM | 0.0343 µM | < 0.0322 µM | 0.0763 µM | 0.11 µM |  | 2.73 µM |  |  |  |  |  |  |  | 
3 | CC(=O)[O][Ga]([Cl])[O]C(C)=O | > 100 µM | > 100 µM | > 100 µM | > 100 µM | > 100 µM | > 100 µM | > 100 µM |  |  | > 100 µM | > 100 µM | > 100 µM | > 100 µM | > 100 µM | > 100 µM | > 100 µM | 
4 | CC(C)(C)N=NNc1cn(C2OC(CO)C(O)C2O)c(=O)[nH]c1=O (stereo not given) | > 100 µM | > 100 µM | > 100 µM | > 100 µM | > 100 µM | > 100 µM | > 100 µM |  |  |  |  |  |  |  |  |  | 
5 | CCCN(CCCC(NC(C)=O)C(=O)NCc1ccccc1)C(=O)N(CCCl)N=O (stereo not given) | 71 µM | 50 µM | 42.6 µM | 34 µM | 87.6 µM | > 76.1 µM | 35.1 µM | > 100 µM | > 100 µM |  |  |  |  |  |  |  | > 100 µM
6 | COc1ccc(OC)c(/C(C)=N/NC(N)=S)c1 | > 100 µM | > 100 µM | > 100 µM | > 100 µM | > 100 µM | > 100 µM | > 100 µM |  |  |  |  |  |  |  |  |  | 
